Settings: 5500 kPa, Brillouin Light Scattering

CCCCCC [hexane]
speed of sound [m/s]
Settings | 300.09 K | 353.12 K | 403.17 K | 453.15 K | 503.13 K | 547.89 K | 578.22 K | 608.05 K | 636.04 K
Fluid (supercritical or subcritical phases) | – | – | – | – | – | 158.25 | 154.04 | 178.03 | 194.98
Liquid | 1111.2 | 898.5 | 705.9 | 513 | 323.7 | – | – | – | –

From the NIST ThermoML archive (doi:10.1016/j.jct.2016.09.005)
